Where two headings read alike, the source gives them in different places.
Tests used:
MOLT-4 cells = assay: Cell viability assay, MTS, 48 h, MOLT-4; assay type: cell-based; conditions: 48 hours, read-out: IC50 (48 hours) MOLT-4
Procedure: (§1) Acute lymphoblastic leukemia cells (MOLT-4 and RS4; 11) or small cell lung cancer (NCI-H146 or simply H146) were incubated with increasing concentrations of Bcl-xL degraders for 48 h. Cell viability was measured by tetrazolium-based MTS assay.

RS4;11 cells = assay: Cell viability assay, MTS, 48 h, RS4;11; assay type: cell-based; conditions: 48 hours, read-out: IC50 (48 hours) RS4;11
Procedure: as §1

| IC50 (MOLT-4 cells; Homo sapiens, MOLT-4, 48 h) [µM] | IC50 (RS4;11 cells; Homo sapiens, RS4-11, 48 h) [µM] | Compound | IC50 (MOLT-4 cells) [µM] | IC50 (RS4;11 cells) [µM] |
| --- | --- | --- | --- | --- |
| 0.05 to 0.15 | 0.05 to 0.15 | Cc1ncsc1-c1ccc([C@H](C)NC(=O)[C@@H]2C[C@@H](O)CN2C(=O)[C@@H](NC(=O)CCCCCCCCC(=O)N2CCN(CC3(C)CCC(c4ccc(Cl)cc4)=C(CN4CCN(c5ccc(C(=O)NS(=O)(=O)c6ccc(N[C@H](CCN7CCOCC7)CSc7ccccc7)c(S(=O)(=O)C(F)(F)F)c6)cc5)CC4)C3)CC2)C(C)(C)C)cc1 (stereo partly drawn) [degrader #19, (2S,4R)-1-((2S)-2-(10-(4-((4′-chloro-4-methyl-6-((4-(4-(((4-(((R)-4-morpholino-1-(phenylthio)butan-2-yl)amino)-3-((trifluoromethyl)sulfonyl)phenyl)sulfonyl)carbamoyl)phenyl)piperazin-1-yl)methyl)-2,3,4,5-tetrahydro-[1,1′-biphenyl]-4-yl)methyl)piperazin-1-yl)-10-oxodecanamido)-3,3-dimethylbutanoyl)-4-hydroxy-N—((S)-1-(4-(4-methylthiazol-5-yl)phenyl)ethyl)pyrrolidine-2-carboxamide] | – | – |
| > 0.5 | > 0.5 | Cc1ncsc1-c1ccc([C@H](C)NC(=O)[C@@H]2C[C@@H](O)CN2C(=O)[C@@H](NC(=O)CCCCCC#CC#CC2(C)CCC(c3ccc(Cl)cc3)=C(CN3CCN(c4ccc(C(=O)NS(=O)(=O)c5ccc(N[C@H](CCN6CCOCC6)CSc6ccccc6)c(S(=O)(=O)C(F)(F)F)c5)cc4)CC3)C2)C(C)(C)C)cc1 (stereo partly drawn) [degrader #12, (2S,4R)-1-((2S)-2-(10-(4′-chloro-4-methyl-6-((4-(4-(((4-(((R)-4-morpholino-1-(phenylthio)butan-2-yl)amino)-3-((trifluoromethyl)sulfonyl)phenyl)sulfonyl)carbamoyl)phenyl)piperazin-1-yl)methyl)-2,3,4,5-tetrahydro-[1,1′-biphenyl]-4-yl)deca-7,9-diynamido)-3,3-dimethylbutanoyl)-4-hydroxy-N—((S)-1-(4-(4-methylthiazol-5-yl)phenyl)ethyl)pyrrolidine-2-carboxamide] | – | – |
| < 0.05 | < 0.05 | Cc1ncsc1-c1ccc([C@H](C)NC(=O)[C@@H]2C[C@@H](O)CN2C(=O)[C@@H](NC(=O)CCCCCCC(=O)N2CCN(C(=O)C3(C)CCC(c4ccc(Cl)cc4)=C(CN4CCN(c5ccc(C(=O)NS(=O)(=O)c6ccc(N[C@H](CCN7CCOCC7)CSc7ccccc7)c(S(=O)(=O)C(F)(F)F)c6)cc5)CC4)C3)CC2)C(C)(C)C)cc1 (stereo partly drawn) [compound 65, (2S,4R)-1-((2S)-2-(8-(4-(4′-chloro-4-methyl-6-((4-(4-(((4-(((R)-4-morpholino-1-(phenylthio)butan-2-yl)amino)-3-((trifluoromethyl)sulfonyl)phenyl)sulfonyl)carbamoyl)phenyl)piperazin-1-yl)methyl)-2,3,4,5-tetrahydro-[1,1′-biphenyl]-4-carbonyl)piperazin-1-yl)-8-oxooctanamido)-3,3-dimethylbutanoyl)-4-hydroxy-N—((S)-1-(4-(4-methylthiazol-5-yl)phenyl)ethyl)pyrrolidine-2-carboxamide] | – | – |
| – | – | (2S,4R)-1-((S)-2-(8-(4-(4-chlorophenyl)-5-((4-(4-(((4-(((R)-4-morpholino-1-(phenylthio)butan-2-yl)amino)-3-((trifluoromethyl)sulfonyl)phenyl)sulfonyl)carbamoyl)phenyl)piperazin-1-yl)methyl)-3,6-dihydropyridin-1(2H)-yl)-8-oxooctanamido)-3,3-dimethylbutanoyl)-4-hydroxy-N—((S)-1-(4-(4-methylthiazol-5-yl)phenyl)ethyl)pyrrolidine-2-carboxamide [Example 3] | 0.15 to 0.5 | 0.05 to 0.15 |
